Source: patent publication US20260034123A1 (Cedilla Therapeutics, Inc., priority 2022, published 2026)

What was measured:
Kuramochi cells RB-WT = assay: IncuCyte Kuramochi cell proliferation assay, RB-WT; assay type: cell-based; conditions: 72 hours, cell count
Description: (§1) IncuCyte® assay was used to measure the effect of disclosed compounds on cell proliferation. Fluorescent microscopy images of cells were taken immediately after compound treatment and 72 hours later. Image analysis software was used to obtain cell counts as a function of compound concentration. Kuramochi cells labeled with mApple-H2B were seeded on 384-well assay-ready plates. Plates were placed in an IncuCyte® (Sartorius) and scanned at 0 and 72 hours. IncuCyte® software was used to count the number of fluorescent nuclei in each well. The fold change in cell count from 0 to 72 hours in wells treated with increasing compounds concentrations (10 pts, 1/2 log dilution, 20 µM top concentration) was normalized to DMSO control wells. The normalized cell counts were fit with dose response curves and a GI50 was calculated.

Kuramochi cells RB-KO = assay: IncuCyte Kuramochi cell proliferation assay, RB-KO; assay type: cell-based; conditions: 72 hours, cell count, batch mean
Description: as §1

CDK2/Cyclin E1 = CDK2/Cyclin E1 (Homo sapiens, UniProt P24941); assay: ADP-Glo Luminescent Kinase Assay (CDK2/E1-37C); assay type: biochemical; conditions: 0.18 nM CDK2/Cyclin E1, 100 μM ATP, Histone H1, 37° C.; read-out: ADPGLO (CDK2/E1-37C): IC50
Description: Inhibition of CDK2/Cyclin E1 activity by the presence of small molecules was evaluated using ADP-Glo Luminescent Kinase Assay (Promega). Activated CDK2/Cyclin E1 was incubated with its substrate Histone H1 (SignalChem H10-54N) in the kinase reaction buffer (100 μM ATP, 50 mM HEPES pH 7.5, 10 mM MgCl2, 1 mM EDTA, 2 mM DTT, 0.01% Brij35, 0.5 mg/mL BSA). Luminescence was recorded with an Envision plate reader (PerkinElmer).
Dose titrations of inhibitors in 100% DMSO were combined with 0.36 nM CDK2/Cyclin E1 in reaction buffer. The mixtures were incubated for 60 minutes at 37° C. before the addition of ATP and Histone H1 substrate to initiate the kinase reaction. The final conditions were 0.18 nM CDK2/Cyclin E1, 100 μM ATP, and […] Histone H1. The reactions were incubated at 37° C. for 90 minutes before being stopped with the addition of ADP-Glo reagent. This mixture was incubated at room temperature for 60 minutes before Kinase Detection Solution is added to generate luminescence. The stopped reactions were analyzed on an Envision plate reader. The conversion ratios were normalized to yield % activity, plotted against compound concentration, and fit to a four-parameter equation to determine the IC50 for each compound.

IC50 (CDK2/Cyclin E1) [µM] | SMILES | IC50 (Kuramochi cells RB-WT) [µM] | IC50 (Kuramochi cells RB-KO) [µM]
5 to 10 | O=C(O)c1c(COC[C@@H]2CN(c3cc(C(F)(F)F)c(F)c4ncsc34)CC23CN(C(=O)C2(C(F)(F)F)CC2)C3)cccc1C1CCC(F)(F)CC1 [I′-48] | ≤ 0.5 | > 10
≤ 0.5 | CC(C)(C(=O)N1CC2(C1)CN(c1cc(F)c(F)c3ncsc13)C[C@H]2COCc1cccc(C2CCC(F)(F)CC2)c1C(=O)O)C(F)(F)F [I′-71, (S)-2-(((6-(4,5-difluorobenzo[d]thiazol-7-yl)-2-(3,3,3-trifluoro-2,2-dimethylpropanoyl)-2,6-diazaspiro[3.4]octan-8-yl)methoxy)methyl)-6-(4,4-difluorocyclohexyl)benzoic acid] | 5 to 10 | > 10
> 10 | O=C(O)c1c(COCC2CN(Cc3cnn(Cc4ccc(F)cc4)c3)C(=O)C23CN(C(=O)C2(C(F)(F)F)CC2)C3)cccc1C1CCC(C(F)(F)F)CC1 (stereo not drawn) [I′-60] | > 10 | > 10
≤ 0.5 | Cc1cc(F)ccc1-c1cccc(COCC2CN(C(=O)c3cnn(Cc4ccc(F)cc4)c3)CC23CN(C(=O)C2(C(F)(F)F)CC2)C3)c1C(=O)O (stereo not drawn) [I′-77, 4′-fluoro-3-(((6-(1-(4-fluorobenzyl)-1H-pyrazole-4-carbonyl)-2-(1-(trifluoromethyl)cyclopropane-1-carbonyl)-2,6-diazaspiro[3.4]octan-8-yl)methoxy)methyl)-2′-methyl-[1,1′-biphenyl]-2-carboxylic acid] | 5 to 10 | > 10
≤ 0.5 | CC(C)(C(=O)N1CC2(CN(C(=O)c3cnn(Cc4ccc(F)cc4)c3)C[C@H]2COCc2cccc(-c3cccc(C(F)(F)F)c3)c2C(=O)O)C1)C(F)(F)F [I′-27, (S)-3-(((6-(1-(4-fluorobenzyl)-1H-pyrazole-4-carbonyl)-2-(3,3,3-trifluoro-2,2-dimethylpropanoyl)-2,6-diazaspiro[3.4]octan-8-yl)methoxy)methyl)-3′-(trifluoromethyl)-[1,1′-biphenyl]-2-carboxylic acid] | 5 to 10 | > 10
≤ 0.5 | NC(=O)c1c(COC[C@@H]2CN(C(=O)c3cnn(Cc4ccccc4C(=O)O)c3)CC23CN(C(=O)C2(C(F)(F)F)CC2)C3)cccc1C1CCC(F)(F)CC1 [I′-57, (S)-2-((4-(8-(((2-carbamoyl-3-(4,4-difluorocyclohexyl)benzyl)oxy)methyl)-2-(1-(trifluoromethyl)cyclopropane-1-carbonyl)-2,6-diazaspiro[3.4]octane-6-carbonyl)-1H-pyrazol-1-yl)methyl)benzoic acid] | 5 to 10 | 0.5 to 5
≤ 0.5 | CC(C)(C(=O)N1CC2(CN(C(=O)c3cnn(Cc4cc(F)c(F)c(F)c4)c3)C[C@H]2COCc2cccc(C3CCC(F)(F)CC3)c2C(=O)O)C1)C(F)(F)F [I′-53] | 0.5 to 5 | > 10
≤ 0.5 | O=C(c1cnn(Cc2ccc(F)cc2)c1)N1CC(COCc2cccc(C3CCC(F)(F)CC3)c2-c2noc(=O)[nH]2)C2(C1)CN(C(=O)C1(C(F)(F)F)CC1)C2 (stereo not drawn) [I′-55, 3-(2-(4,4-difluorocyclohexyl)-6-(((6-(1-(4-fluorobenzyl)-1H-pyrazole-4-carbonyl)-2-(1-(trifluoromethyl)cyclopropane-1-carbonyl)-2,6-diazaspiro[3.4]octan-8-yl)methoxy)methyl)phenyl)-1,2,4-oxadiazol-5(4H)-one] | 5 to 10 | > 10
≤ 0.5 | CC1(C)C[C@@H]1C(=O)N1CC2(CN(C(=O)c3cnn(Cc4ccc(F)cc4)c3)C[C@H]2COCc2cccc(C3CCC(F)(F)CC3)c2C(=O)OCCN2CCOCC2)C1 [I′-36, 2-morpholinoethyl 2-(4,4-difluorocyclohexyl)-6-((((S)-2-((S)-2,2-dimethylcyclopropane-1-carbonyl)-6-(1-(4-fluorobenzyl)-1H-pyrazole-4-carbonyl)-2,6-diazaspiro[3.4]octan-8-yl)methoxy)methyl)benzoate] | ≤ 0.5 | 0.5 to 5
≤ 0.5 | CC(C)(C(=O)N1CC2(CN(C(=O)c3cnn(Cc4ccc(F)cc4)c3)C[C@H]2COCc2cccc(-c3csc(C(F)(F)F)c3)c2C(=O)O)C1)C(F)(F)F [I′-26, (S)-2-(((6-(1-(4-fluorobenzyl)-1H-pyrazole-4-carbonyl)-2-(3,3,3-trifluoro-2,2-dimethylpropanoyl)-2,6-diazaspiro[3.4]octan-8-yl)methoxy)methyl)-6-(5-(trifluoromethyl)thiophen-3-yl)benzoic acid] | ≤ 0.5 | > 10

The next lines start with the compound.

SMILES | IC50 (CDK2/Cyclin E1) [µM] | IC50 (Kuramochi cells RB-WT) [µM] | IC50 (Kuramochi cells RB-KO) [µM]
CC(C)(C(=O)N1CC2(CN(C(=O)c3cnn(Cc4ccc(F)cc4)c3)C[C@H]2COCc2cccc(N3CCC(C(F)(F)F)CC3)c2C(=O)O)C1)C(F)(F)F [I′-19, (S)-2-(((6-(1-(4-fluorobenzyl)-1H-pyrazole-4-carbonyl)-2-(3,3,3-trifluoro-2,2-dimethylpropanoyl)-2,6-diazaspiro[3.4]octan-8-yl)methoxy)methyl)-6-(4-(trifluoromethyl)piperidin-1-yl)benzoic acid] | ≤ 0.5 | 0.5 to 5 | > 10
C[C@@H](c1ccc(F)cc1)n1cc(C(=O)N2CC(COCc3cccc(C4CCC(C(F)(F)F)CC4)c3C(=O)O)C3(C2)CN(C(=O)C2(C(F)(F)F)CC2)C3)cn1 (stereo partly drawn) [Compound I-77] | 0.5 to 5 | > 10 | > 10
CC(C)(C(=O)N1CC2(CN(C(=O)c3cnn(Cc4ccc(F)cc4)c3)C[C@H]2COCc2c(C(F)(F)F)ccc(C3CCC(F)(F)CC3)c2C(=O)O)C1)C(F)(F)F [I′-20] | ≤ 0.5 | 5 to 10 | > 10
O=C(O)c1ccc(C2CCC(C(F)(F)F)CC2)cc1COC[C@@H]1CN(C(=O)c2cnn(Cc3ccc(F)cc3)c2)CC12CN(C(=O)C1(C(F)(F)F)CC1)C2 (stereo partly drawn) [Compound I-111] | 0.5 to 5 | > 10 | > 10
O=C(O)c1ccccc1Cn1cc(C(=O)N2C[C@@H](COCc3cccc(C4CCC(C(F)(F)F)CC4)c3)C3(C2)CN(C(=O)C2(C(F)(F)F)CC2)C3)cn1 (stereo in doubt) [Compound I-113, 2-((4-(8-(((3-(4-(trifluoromethyl)cyclohexyl)benzyl)oxy)methyl)-2-(1-(trifluoromethyl)cyclopropane-1-carbonyl)-2,6-diazaspiro[3.4]octane-6-carbonyl)-1H-pyrazol-1-yl)methyl)benzoic acid] | 0.5 to 5 | > 10 | > 10
CC1(C)C[C@@H]1C(=O)N1CC2(CN(C(=O)c3cnn(Cc4ccc(F)cc4)c3)CC2COc2cccc(CC3CCC(F)(F)CC3)c2C(=O)O)C1 (stereo partly drawn) [Compound I-129] | ≤ 0.5 | > 10 | > 10
O=C(O)c1c(COC[C@@H]2CN(C(=O)c3cnn(Cc4ccc(F)cc4)c3)CC23CN(C(=O)C2CCO2)C3)cccc1C1CCC(C(F)(F)F)CC1 (stereo partly drawn) [Compound I-96] | 0.5 to 5 | > 10 | > 10
CC(C(=O)N1CC2(CN(C(=O)c3cnn(Cc4ccc(F)cc4)c3)C[C@H]2COCc2cccc(C3CCC(C(F)(F)F)CC3)c2C(=O)O)C1)(C(F)(F)F)C(F)(F)F (stereo partly drawn) [Compound I-100, (S)-2-(((6-(1-(4-fluorobenzyl)-1H-pyrazole-4-carbonyl)-2-(3,3,3-trifluoro-2-methyl-2-(trifluoromethyl)propanoyl)-2,6-diazaspiro[3.4]octan-8-yl)methoxy)methyl)-6-(4-(trifluoromethyl)cyclohexyl)benzoic acid] | ≤ 0.5 | > 10 | > 10
CC(C)(C)OC(=O)c1c(COCC2CN(c3cc(F)cc4ncsc34)CC23CN(C(=O)C2(C(F)(F)F)CC2)C3)cccc1C1CCC(C(F)(F)F)CC1 (stereo not drawn) [Compound I-57, tert-butyl 2-(((6-(5-fluorobenzo[d]thiazol-7-yl)-2-(1-(trifluoromethyl)cyclopropane-1-carbonyl)-2,6-diazaspiro[3.4]octan-8-yl)methoxy)methyl)-6-(4-(trifluoromethyl)cyclohexyl)benzoate] | > 10 | > 10 | 
N#Cc1ccc(Cn2cc(C(=O)N3CC(CS(=O)(=O)Cc4cccc(-c5ccc(C(F)(F)F)cc5)n4)C4(C3)CN(C(=O)C3(C(F)(F)F)CC3)C4)cn2)cc1 (stereo not drawn) [Compound I-2] | 5 to 10 | > 10 | 
O=C(O)C(=CC1CN(C(=O)c2cnn(Cc3ccc(C(F)(F)F)cc3)c2)CC12CN(C(=O)C1(C(F)(F)F)CC1)C2)Cc1cccc(-c2ccc(C(F)(F)F)cc2)n1 (stereo not drawn) [Compound I-62, 3-(6-(1-(4-(Trifluoromethyl)benzyl)-1H-pyrazole-4-carbonyl)-2-(1-(trifluoromethyl)cyclopropane-1-carbonyl)-2,6-diazaspiro[3.4]octan-8-yl)-2-((6-(4-(trifluoromethyl)phenyl)pyridin-2-yl)methyl)acrylic acid] | > 10 | > 10 | 
